Assay results taken from the supplement of paper PMC10307832.

Legend:
Experiment in all cases: relative viability (nuclei count vs DMSO), 5 days (fraction); higher = more cells survive
Trametinib + Palbociclib = compound: CC(=O)Nc1cccc(-n2c(=O)n(C3CC3)c(=O)c3c(Nc4ccc(I)cc4F)n(C)c(=O)c(C)c32)c1 [Trametinib] + CC(=O)c1c(C)c2cnc(Nc3ccc(N4CCNCC4)cn3)nc2n(C2CCCC2)c1=O [Palbociclib] (partner 0.5 µM)
Summary of the method: (§1)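 Medians of duplicate plates are given as relative viability. That measure is the nuclei count in treated wells divided by the count in vehicle wells. Counts were taken on 4× images of lung cancer cell lines in 1536-well plates, 5 days after pin-tool dosing the day after seeding with one drug alone or a fixed anchor-drug dose plus five library-drug doses (not always all listed) in √10 steps.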

Trametinib + Dasatinib = compound: CC(=O)Nc1cccc(-n2c(=O)n(C3CC3)c(=O)c3c(Nc4ccc(I)cc4F)n(C)c(=O)c(C)c32)c1 [Trametinib] + Cc1nc(Nc2ncc(C(=O)Nc3c(C)cccc3Cl)s2)cc(N2CCN(CCO)CC2)n1 [Dasatinib] (partner 0.075 µM)
Summary of the method: as §1

Trametinib + Decitabine = compound: CC(=O)Nc1cccc(-n2c(=O)n(C3CC3)c(=O)c3c(Nc4ccc(I)cc4F)n(C)c(=O)c(C)c32)c1 [Trametinib] + Nc1ncn([C@H]2C[C@H](O)[C@@H](CO)O2)c(=O)n1 [Decitabine] (partner 2 µM)
Summary of the method: as §1

Trametinib + Vorinostat = compound: CC(=O)Nc1cccc(-n2c(=O)n(C3CC3)c(=O)c3c(Nc4ccc(I)cc4F)n(C)c(=O)c(C)c32)c1 [Trametinib] + O=C(CCCCCCC(=O)Nc1ccccc1)NO [Vorinostat] (partner 1 µM)
Summary of the method: as §1

| Cell Line | relative viability (Trametinib + Palbociclib; first compound 0.0025 µM) | relative viability (Trametinib + Palbociclib; first compound 0.007906 µM) | relative viability (Trametinib + Palbociclib; first compound 0.025 µM) | relative viability (Trametinib + Palbociclib; first compound 0.07906 µM) | relative viability (Trametinib + Palbociclib; first compound 0.25 µM) | relative viability (Trametinib + Dasatinib; first compound 0.0025 µM) | relative viability (Trametinib + Dasatinib; first compound 0.007906 µM) | relative viability (Trametinib + Dasatinib; first compound 0.025 µM) | relative viability (Trametinib + Dasatinib; first compound 0.07906 µM) | relative viability (Trametinib + Dasatinib; first compound 0.25 µM) | relative viability (Trametinib + Decitabine; first compound 0.0025 µM) | relative viability (Trametinib + Decitabine; first compound 0.007906 µM) | relative viability (Trametinib + Decitabine; first compound 0.025 µM) | relative viability (Trametinib + Decitabine; first compound 0.07906 µM) | relative viability (Trametinib + Decitabine; first compound 0.25 µM) | relative viability (Trametinib + Vorinostat; first compound 0.0025 µM) | relative viability (Trametinib + Vorinostat; first compound 0.007906 µM) | relative viability (Trametinib + Vorinostat; first compound 0.025 µM) | relative viability (Trametinib + Vorinostat; first compound 0.07906 µM) | relative viability (Trametinib + Vorinostat; first compound 0.25 µM) |
| --- | --- | --- | --- | --- | --- | --- | --- | --- | --- | --- | --- | --- | --- | --- | --- | --- | --- | --- | --- | --- |
| COR-L 105 | 0.39 | 0.44 | 0.421 | 0.34 | 0.347 | 0.319 | 0.289 | 0.194 | 0.153 | 0.17 | 0.64 | 0.609 | 0.486 | 0.375 | 0.36 | 0.715 | 0.747 | 0.52 | 0.484 | 0.379 |
| ChaGo-K-1 | 0.926 | 0.778 | 0.912 | 0.852 | 0.75 | 0.586 | 0.605 | 0.567 | 0.475 | 0.48 | 0.52 | 0.494 | 0.576 | 0.467 | 0.497 | 0.659 | 0.623 | 0.685 | 0.731 | 0.418 |
| EKVX | 0.375 | 0.401 | 0.173 | 0.182 | 0.182 | 0.398 | 0.492 | 0.31 | 0.226 | 0.221 | 0.36 | 0.351 | 0.326 | 0.372 | 0.222 | 0.63 | 0.442 | 0.365 | 0.405 | 0.321 |
| EMC-BAC-2 | 0.581 | 0.555 | 0.495 | 0.502 | 0.357 | 0.352 | 0.407 | 0.419 | 0.443 | 0.365 | 0.974 | 0.95 | 0.827 |  | 0.5 | 0.742 | 0.602 | 0.448 |  | 0.326 |
| EPLC-272H | 0.293 | 0.303 | 0.262 | 0.207 | 0.239 | 0.275 | 0.231 | 0.215 | 0.138 | 0.12 | 0.357 | 0.324 | 0.326 | 0.336 | 0.293 | 0.455 | 0.368 | 0.233 | 0.148 | 0.162 |
| H3255 | 0.339 | 0.356 | 0.357 | 0.342 | 0.365 | 0.512 | 0.334 | 0.288 | 0.238 | 0.346 | 0.552 | 0.572 | 0.487 | 0.518 | 0.378 | 0.903 | 0.799 | 0.509 | 0.709 | 0.905 |
| HARA | 0.236 | 0.202 | 0.205 | 0.192 | 0.198 | 0.225 | 0.275 | 0.367 | 0.18 | 0.185 | 0.606 | 0.469 | 0.474 | 0.421 | 0.422 | 0.387 | 0.403 | 0.298 | 0.251 | 0.154 |
